Structures are written as SMILES. pEC50, pIC50: −log10 of the molar value. Entries after “also recorded” stand apart in the source; their conditions may differ. Read-outs that look alike come from different tables or passages of the source.

This is an account of results in US20230339919A1, “BENZO OXYGEN-CONTAINING HETEROCYCLIC COMPOUNDS AND MEDICAL APPLICATION THEREOF” (AB PHARMA LTD., priority 2020, published 2023).

One data set relates to healthy mice. Description: Acute Toxicity Study (MTD) by gavage in healthy mice. The format is in vivo. The note with it: for survival rate of the mice after administration: 5 days.
Test in data set [1]: as above
The class given is in vivo. The note with it: mouse, in vivo, po.

Data set [2] concerns the target BSEP bile salt transporter (Homo sapiens, UniProt O95342). Description: BSEP (Bile Salt Export Pump) assay, taurocholic acid uptake by BSEP vesicles, LC/MS/MS. The class given is in vitro ADME. The text has this:
In this experiment, we performed a preliminary study on the inhibition of the uptake of the substrate taurocholic acid (TCA) by the BSEP bile salt transporter by LC/MS/MS. The BSEP protein microvesicles with reverse uptake ability were obtained by transfecting Hi5 cells with the BSEP gene, which is capable of TCA uptake and uptake of taurocholic acid. The principle of this experiment is to perform substrate uptake by BSEP protein microcapsules in the presence of energy ATP, the substrate TCA and the candidate compound to be tested, after a certain transit time, the energy, substrate and candidate compound were completely washed out of the microvesicle, and the absorbed substrate TCA was released by lysis of the microvesicle. […] The starting concentration of the sample was 100 mM, diluted in 2-fold gradient with Bravo apparatus, with 11 concentration gradients; the lowest point concentration was 97.65 μM. • 3. Control compound (Glyburide) starting at 20 mM, diluted in 2-fold gradient with Bravo instrument, with 11 concentration gradients; the lowest point concentration was 19.53 μM. • 4. 300 nl of compound was transferred to the middle plate using the ECHO autosampler. • 5. Positive control (HPE) wells and negative control (ZPE) wells were also transferred 300 nl DMSO each. […] Add 14.7 μl of ATP buffer to the corresponding wells of the compound and ZPE, respectively. • 2. Add 14.7 μl of AMP buffer to the corresponding wells of the HPE. • 3. Shake the plate at 25 degrees C. for 10 minutes. • 4. […] Immediately add 5 ul of 0.5M EDTA solution to all wells, and then add 65 μl of Buffer B. All reactions are completed. • 6. Transfer […] of liquid from the end of reaction compound plate to the filter plate using the spiking apparatus. • 7. After placing the liquid receiving plate under the filter plate, use a centrifuge to remove the liquid and discard the liquid received in the receiving plate. • 8. Add 90 μl of buffer B to the filter plate and repeat step 7. Repeat steps 7 and 8 to wash the filter plate a total of three times. • 9. Let the filter plate dry overnight. • 10. Add 81 μl of 80% methanol/water solution to the filter plate the next day. • 11. Apply membrane to the filter plate and vibrate the plate for 15 minutes. • 12. Place a new liquid receiver plate under the filter plate and centrifuge for 5 min to filter all the liquid from the filter plate into the receiver plate. • 13. Add 13.5 μl of internal standard solution to each well of the liquid receiver plate and seal the plate with a sealing film. • 14. Using LC/MS/MS, detect the content of taurocholic acid in the receiver plate.

The next data set concerns the target hERG (Homo sapiens, UniProt Q12809). Kind of data set: hERG assay.
In the next data set the target is T1, GPR40 (Homo sapiens, UniProt O14842).
T1 construct: expressed in transfected cells; host or cells: CHO-K1
Description: GPR40 agonist activity, FLIPR calcium assay in CHO-K1/GPR40 cells. The class given is cell-based. Here is the method:
Inoculate CHO-K1/GPR40 cells in 384-well plates at a density of 10,000 cells/well. Cells were incubated at 37° C. for 24 hours in a 5% CO2 incubator. After the experiment, discard the cell culture medium, quickly add […] of 1× FLIPR® Calcium 6 dye containing 2.5 mM/Probenecid to each well and incubate at 37° C. for 2 hours protected from light. For the determination, different concentrations of drug ([…]) were added to the wells and the fluorescence values were read. The fluorescence excitation wavelength was 494 nm and emission wavelength was 516 nm. FLIPR instrument data, EC50 was derived from the formula Y=Bottom+(Top−Bottom)/(1+(EC50/X)^HillSlope).

The conditions of data set [3]: cited from earlier work.
The mark [4] stands for this setting: inhibition of TCA uptake by BSEP vesicles, read-out: Potential inhibitory side effects BSEP (IC50).
Where [5] appears, read: GPR40 agonist activity range (EC50), CHO-K1/GPR40 cells, read-out: GPR40 activity.
[6] abbreviates: Table 4, read-out: GPR40 Activity (hEC50).
The mark [7] stands for this setting: read-out: GPR40 activity (EC50).

hERG, sequence (Q12809 whole entry): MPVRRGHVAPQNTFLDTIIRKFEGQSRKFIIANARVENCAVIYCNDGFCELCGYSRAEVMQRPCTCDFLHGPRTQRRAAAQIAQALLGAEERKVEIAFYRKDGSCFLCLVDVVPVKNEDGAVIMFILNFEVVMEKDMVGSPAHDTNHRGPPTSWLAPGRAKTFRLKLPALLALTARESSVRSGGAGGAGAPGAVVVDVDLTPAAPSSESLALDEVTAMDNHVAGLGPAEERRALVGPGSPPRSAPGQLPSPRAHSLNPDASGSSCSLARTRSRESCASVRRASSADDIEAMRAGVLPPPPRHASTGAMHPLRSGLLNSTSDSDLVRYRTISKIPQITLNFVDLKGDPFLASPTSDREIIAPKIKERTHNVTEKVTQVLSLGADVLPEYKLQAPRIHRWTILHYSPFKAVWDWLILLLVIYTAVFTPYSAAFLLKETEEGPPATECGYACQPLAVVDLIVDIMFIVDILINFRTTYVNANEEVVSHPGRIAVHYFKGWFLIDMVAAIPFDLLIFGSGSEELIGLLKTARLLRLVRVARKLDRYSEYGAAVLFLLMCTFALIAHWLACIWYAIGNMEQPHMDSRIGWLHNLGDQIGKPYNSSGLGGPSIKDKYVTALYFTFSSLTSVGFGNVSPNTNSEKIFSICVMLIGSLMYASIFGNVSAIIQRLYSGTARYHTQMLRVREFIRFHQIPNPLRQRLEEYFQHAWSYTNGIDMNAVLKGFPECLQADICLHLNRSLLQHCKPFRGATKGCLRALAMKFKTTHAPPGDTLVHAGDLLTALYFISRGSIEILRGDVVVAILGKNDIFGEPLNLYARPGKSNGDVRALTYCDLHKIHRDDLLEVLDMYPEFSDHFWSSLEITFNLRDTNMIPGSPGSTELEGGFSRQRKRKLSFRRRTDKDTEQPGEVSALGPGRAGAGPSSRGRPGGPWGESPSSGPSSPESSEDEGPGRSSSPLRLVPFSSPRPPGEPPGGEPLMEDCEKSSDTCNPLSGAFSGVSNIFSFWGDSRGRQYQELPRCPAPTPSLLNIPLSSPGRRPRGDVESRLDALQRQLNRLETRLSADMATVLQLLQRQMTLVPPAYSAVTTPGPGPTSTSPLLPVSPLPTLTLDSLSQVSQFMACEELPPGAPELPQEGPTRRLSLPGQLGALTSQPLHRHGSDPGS
BSEP bile salt transporter, sequence (O95342 whole entry): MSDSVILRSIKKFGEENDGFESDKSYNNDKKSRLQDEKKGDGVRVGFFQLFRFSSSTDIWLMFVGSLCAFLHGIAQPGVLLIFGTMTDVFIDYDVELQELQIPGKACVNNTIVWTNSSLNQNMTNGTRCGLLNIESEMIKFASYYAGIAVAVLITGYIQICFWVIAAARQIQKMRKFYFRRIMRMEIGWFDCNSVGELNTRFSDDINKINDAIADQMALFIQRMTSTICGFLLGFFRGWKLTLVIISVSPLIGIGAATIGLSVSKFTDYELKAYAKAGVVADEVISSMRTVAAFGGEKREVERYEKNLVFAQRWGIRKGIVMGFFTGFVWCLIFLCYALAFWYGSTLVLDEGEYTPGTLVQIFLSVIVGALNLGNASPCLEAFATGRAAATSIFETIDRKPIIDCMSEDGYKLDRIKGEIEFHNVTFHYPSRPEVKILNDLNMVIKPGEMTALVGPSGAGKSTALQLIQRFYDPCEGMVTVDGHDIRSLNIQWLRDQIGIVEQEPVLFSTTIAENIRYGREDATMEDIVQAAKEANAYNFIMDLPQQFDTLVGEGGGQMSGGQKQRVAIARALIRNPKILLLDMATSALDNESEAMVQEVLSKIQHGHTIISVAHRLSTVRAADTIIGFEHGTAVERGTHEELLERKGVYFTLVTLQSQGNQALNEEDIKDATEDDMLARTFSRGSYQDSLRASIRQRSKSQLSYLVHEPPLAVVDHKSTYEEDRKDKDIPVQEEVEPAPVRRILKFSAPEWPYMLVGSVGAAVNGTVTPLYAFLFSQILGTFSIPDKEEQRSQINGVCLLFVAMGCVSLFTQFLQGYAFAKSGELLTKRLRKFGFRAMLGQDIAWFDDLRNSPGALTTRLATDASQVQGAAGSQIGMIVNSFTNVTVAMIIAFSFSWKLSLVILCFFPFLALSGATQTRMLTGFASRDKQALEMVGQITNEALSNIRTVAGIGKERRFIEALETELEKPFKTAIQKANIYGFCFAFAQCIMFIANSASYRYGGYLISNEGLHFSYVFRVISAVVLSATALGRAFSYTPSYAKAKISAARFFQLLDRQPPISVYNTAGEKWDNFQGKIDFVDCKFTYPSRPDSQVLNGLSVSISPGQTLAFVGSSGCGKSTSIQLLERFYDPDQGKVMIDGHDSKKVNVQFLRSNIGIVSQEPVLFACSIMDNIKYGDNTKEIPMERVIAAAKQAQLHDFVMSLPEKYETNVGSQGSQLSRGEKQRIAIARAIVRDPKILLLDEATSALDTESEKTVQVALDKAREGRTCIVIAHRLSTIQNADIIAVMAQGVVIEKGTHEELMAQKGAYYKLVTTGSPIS
T1 sequence (O14842 whole entry): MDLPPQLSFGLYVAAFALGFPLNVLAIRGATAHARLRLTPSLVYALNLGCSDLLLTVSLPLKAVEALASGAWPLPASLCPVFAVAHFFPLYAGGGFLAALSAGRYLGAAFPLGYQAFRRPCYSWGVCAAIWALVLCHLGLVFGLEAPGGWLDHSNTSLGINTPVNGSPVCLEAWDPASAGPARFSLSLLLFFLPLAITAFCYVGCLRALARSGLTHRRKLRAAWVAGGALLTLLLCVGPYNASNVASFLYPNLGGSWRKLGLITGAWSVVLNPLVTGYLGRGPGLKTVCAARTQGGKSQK

As for `O=C(O)C[C@@H]1COc2cc(OCc3cc(Cl)cc4c3OCO4)ccc21` [IIb-25], the “survival rate of the mice after administration” value (“survival rate of the mice” below) in the data set on healthy mice (mouse, in vivo, 600 mg/kg) is listed as 100%. In data set [1] (600 mg/kg), this compound displayed an LD50 at 5 days greater than 600 mg/kg. In addition, the results for the pIC50 (in data set [2] (setting [4]); in data set [2] (read-out: BSEP); on hERG) were 4.24, less than 4.60 and less than 4.52, respectively. Besides, in “Ames assay”, the Ames assay result is on record as “no relevant side effects”. Also, the pEC50 was greater than 8.00 on GPR40 (setting [5]), 8.04 at GPR40 (setting [6]) and greater than 8.00 at GPR40 (setting [7]).
As for `O=C(O)C[C@@H]1COc2cc(OCc3cccc4c3OC(F)(F)O4)ccc21` [IIb-18], in the data set with healthy mice (mouse, in vivo, 600 mg/kg), the “survival rate of the mice” value was 100%. The LD50 at 5 days in data set [1] (600 mg/kg) is greater than 600 mg/kg. Also, the values for the pIC50 (in data set [2] (setting [4]); in data set [2] (read-out: BSEP); against hERG) were 3.79, less than 4.60 and less than 4.52, respectively. In addition, in “Ames assay”, the Ames assay result was “no relevant side effects”. Besides, the values for the pEC50 at GPR40 (setting [5]), at GPR40 (setting [6]) and at GPR40 (setting [7]) were greater than 8.00, 8.10 and greater than 8.00, respectively.
On to `CC(C)(C)OC(=O)Nc1cc(COc2ccc3c(c2)OC[C@H]3CC(=O)O)c2c(c1)OCO2` [IIb-43], for which, in the data set with healthy mice (MTD high dose 600 mg/kg/day, mice, 600 mg/kg/day), the “overall / acute toxicity” value is “low and very low”. Further, the “abnormalities in body weight and external and internal observations” value in the data set on healthy mice (during the dosing and 5-day recovery period, 600 mg/kg) is “no abnormalities”. Also, the “autopsy results (heart, liver, lung, kidney, intestine)” value in the data set with healthy mice (mice, 600 mg/kg) is given as “did not reveal any abnormal changes; also recorded: did not reveal any abnormalities”. The “survival rate of the mice” value in the data set with healthy mice (mice, 600 mg/kg by gavage) stood at 100%. In data set [1] (mice, 600 mg/kg by gavage, 5 consecutive days, read-out: LD50), the LD50 at 5 days is greater than 600 mg/kg. Further, the pIC50 was 4.18 in data set [2] (setting [4]), less than 4.60 in data set [2] (read-out: BSEP) and less than 4.52 against hERG. The Ames assay result in the data set “Ames assay” is “no relevant side effects”. Besides, the pEC50 was greater than 8.00 at GPR40 (setting [5]), 8.17 on GPR40 (setting [6]) and greater than 8.00 at GPR40 (setting [7]).
For `Cc1cc(OCCCS(C)(=O)=O)cc(C)c1-c1cccc(COc2ccc3c(c2)OC[C@H]3CC(=O)O)c1` [Ref-1], the pIC50 in data set [2] (setting [4]) is 5.15. The “risk of causing hypoglycaemia” value in data set [3] (50 mg once daily, versus control sulphonylureas) is given as “significantly lower than that of the control sulphonylureas”. The hepatotoxicity entry in data set [3] (clinical studies terminated in 2013) is listed as “problems with hepatotoxicity”. The “effect on insulin secretion” value in data set [3] (when blood glucose levels are normal) was “no effect”.
